# Data reported in ChEMBL document CHEMBL4422616, “The P-glycoprotein inhibitor diltiazem-like 8-(4-chlorophenyl)-5-methyl-8-[(2Z)-pent-2-en-1-yloxy]-8H-[1,2,4]oxadiazolo[3,4-c][1,4]thiazin-3-one inhibits esterase activity and H3 histone acetylation” (Eur J Med Chem, 2019).
# Active and inactive are the calls of the source. No cut-off for these calls is given here.
# Tests used:
# [1] = biological target: Acetylcholinesterase (Homo sapiens) (UniProt P22303); assay: Inhibition of AChE (unknown origin) assessed as residual activity at 50 uM using acetylthiocholine chloride as substrate measured for 10 mins (reference value: 100 +/- 1.2%)
# Chain of Acetylcholinesterase (Homo sapiens) (P22303 whole entry): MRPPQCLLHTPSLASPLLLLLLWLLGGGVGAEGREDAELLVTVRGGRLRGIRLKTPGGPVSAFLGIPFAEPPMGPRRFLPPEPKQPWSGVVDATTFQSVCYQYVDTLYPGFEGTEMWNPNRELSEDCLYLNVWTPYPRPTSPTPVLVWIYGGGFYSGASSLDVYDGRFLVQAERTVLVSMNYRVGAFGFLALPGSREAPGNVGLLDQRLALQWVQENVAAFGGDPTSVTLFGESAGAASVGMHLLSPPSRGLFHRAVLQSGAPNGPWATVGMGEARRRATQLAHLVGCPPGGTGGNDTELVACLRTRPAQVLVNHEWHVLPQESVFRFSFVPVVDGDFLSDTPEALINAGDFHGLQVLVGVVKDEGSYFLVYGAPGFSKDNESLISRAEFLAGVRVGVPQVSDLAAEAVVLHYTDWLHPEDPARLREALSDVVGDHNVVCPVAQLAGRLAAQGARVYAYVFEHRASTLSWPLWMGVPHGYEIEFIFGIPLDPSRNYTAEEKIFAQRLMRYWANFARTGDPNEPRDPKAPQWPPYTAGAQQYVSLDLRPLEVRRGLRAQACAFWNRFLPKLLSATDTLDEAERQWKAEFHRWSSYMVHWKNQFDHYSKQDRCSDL
# HEK293 [2] = assay: Cytotoxicity against HEK293 cells assessed as morphological alteration up to 100 uM after 48 hrs by MTT assay; type: cell-based; settings: human, hek293, 48 h
# [3] = biological target: ATP-binding cassette sub-family C member 6 (Homo sapiens, UniProt O95255); assay: Inhibition of ABCC6 (unknown origin) expressed in HEK293 cells assessed as increase in doxorubicin efflux at 100 uM after 30 mins by fluorescence assay; type: cell-based; settings: hek293, 0.5 h
# Chain of ATP-binding cassette sub-family C member 6 (O95255 whole entry): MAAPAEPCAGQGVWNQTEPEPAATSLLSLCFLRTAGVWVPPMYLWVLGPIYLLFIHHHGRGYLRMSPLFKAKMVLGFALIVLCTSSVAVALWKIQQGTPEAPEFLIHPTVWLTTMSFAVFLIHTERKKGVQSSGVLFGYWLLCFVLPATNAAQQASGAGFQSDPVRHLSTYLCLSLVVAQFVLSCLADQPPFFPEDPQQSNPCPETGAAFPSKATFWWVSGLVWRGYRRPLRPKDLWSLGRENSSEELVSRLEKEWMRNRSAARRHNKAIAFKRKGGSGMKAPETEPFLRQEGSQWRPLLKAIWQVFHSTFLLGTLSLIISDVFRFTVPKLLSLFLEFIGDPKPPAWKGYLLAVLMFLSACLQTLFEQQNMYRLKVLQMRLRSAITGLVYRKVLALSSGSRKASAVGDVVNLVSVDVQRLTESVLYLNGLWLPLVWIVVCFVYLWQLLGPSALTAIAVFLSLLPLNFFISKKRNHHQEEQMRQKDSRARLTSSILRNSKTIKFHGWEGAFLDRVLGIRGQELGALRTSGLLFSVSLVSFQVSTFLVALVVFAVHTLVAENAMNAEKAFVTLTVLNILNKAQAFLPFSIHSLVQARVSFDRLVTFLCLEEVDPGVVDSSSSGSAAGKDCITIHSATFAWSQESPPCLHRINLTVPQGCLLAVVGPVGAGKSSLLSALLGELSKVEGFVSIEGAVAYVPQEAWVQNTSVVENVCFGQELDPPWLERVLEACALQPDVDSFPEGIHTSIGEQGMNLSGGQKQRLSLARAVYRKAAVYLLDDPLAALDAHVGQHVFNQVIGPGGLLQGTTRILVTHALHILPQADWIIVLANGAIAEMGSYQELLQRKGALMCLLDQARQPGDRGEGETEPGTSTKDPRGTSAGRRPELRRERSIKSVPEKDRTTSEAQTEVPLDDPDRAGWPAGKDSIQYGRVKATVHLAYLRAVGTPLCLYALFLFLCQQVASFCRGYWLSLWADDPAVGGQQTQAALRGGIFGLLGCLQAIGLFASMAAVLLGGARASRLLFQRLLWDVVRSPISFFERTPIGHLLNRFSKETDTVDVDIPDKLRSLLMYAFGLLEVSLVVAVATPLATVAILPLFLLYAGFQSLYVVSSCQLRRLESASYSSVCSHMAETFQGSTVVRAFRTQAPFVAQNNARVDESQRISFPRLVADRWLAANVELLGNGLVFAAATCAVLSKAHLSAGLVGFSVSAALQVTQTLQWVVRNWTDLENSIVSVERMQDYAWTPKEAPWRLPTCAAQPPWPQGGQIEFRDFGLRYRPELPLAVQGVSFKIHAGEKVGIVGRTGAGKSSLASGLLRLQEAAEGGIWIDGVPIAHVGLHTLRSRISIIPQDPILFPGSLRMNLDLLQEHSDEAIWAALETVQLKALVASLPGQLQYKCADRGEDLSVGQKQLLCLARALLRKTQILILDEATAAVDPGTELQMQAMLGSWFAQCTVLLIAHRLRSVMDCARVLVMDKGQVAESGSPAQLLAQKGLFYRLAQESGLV
# HepG2 [4] = assay: Inhibition of HAT in human HepG2 cells assessed as decrease in histone H3 acetylation at Lys27 residues at 100 uM incubated for 48 hrs in presence of TSA by Western blot analysis; type: cell-based
# HepG2 [5] = assay: Inhibition of HAT in human HepG2 cells assessed as decrease in histone H3 acetylation at Lys27 residues at 100 uM incubated for 48 hrs by Western blot analysis relative to control; type: cell-based
# HepG2 [6] = assay: Cytotoxicity against human HepG2 cells assessed as reduction in cell viability up to 100 uM after 48 hrs by MTT assay; type: cell-based; settings: hepg2, 48 h
# HepG2 [7] = assay: Cytotoxicity against human HepG2 cells assessed as morphological alteration up to 100 uM after 48 hrs by MTT assay; type: cell-based; settings: hepg2, 48 h
# HEK293 [8] = assay: Cytotoxicity against HEK293 cells assessed as reduction in cell viability up to 100 uM after 48 hrs by MTT assay; type: cell-based; settings: human, hek293, 48 h
# HEK293 [9] = assay: Cytotoxicity against HEK293 cells assessed as reduction in cell viability at 500 uM after 24 to 48 hrs by MTT assay relative to control; type: cell-based; settings: human, hek293, 500 µM
# HEK293 [10] = assay: Inhibition of HAT in HEK293 cells assessed as decrease in histone H3 acetylation at Lys27 residues at 100 uM incubated for 48 hrs in presence of TSA by Western blot analysis; type: cell-based; settings: Homo sapiens
# HEK293 [11] = assay: Inhibition of HAT in HEK293 cells assessed as decrease in histone H3 acetylation at Lys27 residues at 100 uM incubated for 48 hrs by Western blot analysis relative to control; type: cell-based; settings: Homo sapiens
# HepG2 [12] = assay: Inhibition of esterase in human hepG2 cells at 100 uM after 1 hr by calcein-AM dye-based fluorescence assay relative to control; type: cell-based
# HEK293 [13] = assay: Inhibition of esterase in HEK293 cells at 100 uM after 1 hr by calcein-AM dye-based fluorescence assay relative to control; type: cell-based; settings: Homo sapiens
# [14] = biological target: Acetylcholinesterase (Homo sapiens) (UniProt P22303); assay: Inhibition of AChE (unknown origin) assessed as residual activity at 100 uM using acetylthiocholine chloride as substrate measured for 10 mins (reference value: 100 +/- 1.2%)
# [15] = biological target: Acetylcholinesterase (Homo sapiens) (UniProt P22303); assay: Inhibition of AChE (unknown origin) using acetylthiocholine chloride as substrate measured for 10 mins
# HepG2 [16] = assay: Cytotoxicity against human HepG2 cells assessed as reduction in cell viability at 500 uM after 24 to 48 hrs by MTT assay relative to control; type: cell-based; settings: hepg2, 500 µM
# [17] = biological target: Acetylcholinesterase (Homo sapiens) (UniProt P22303); assay: Inhibition of AChE (unknown origin) assessed as residual activity at 10 uM using acetylthiocholine chloride as substrate measured for 10 mins (reference value: 100 +/- 1.2%)
smiles,measurement,setting,value
CC/C=C\COC1(c2ccc(Cl)cc2)SC=C(C)n2c1noc2=O (configuration not stated),Activity,[1],61%
same,Activity,HEK293 [2],Non-Toxic
same,inhibition (INH),[3],Active
same,inhibition,HepG2 [4],Active
same,inhibition,HepG2 [5],56%
same,Activity,HepG2 [6],Non-Toxic
same,Activity,HepG2 [7],Non-Toxic
same,Activity,HEK293 [8],Non-Toxic
same,Activity,HEK293 [9],50%
same,inhibition,HEK293 [10],Active
same,inhibition,HEK293 [11],80%
same,inhibition,HepG2 [12],50%
same,inhibition,HEK293 [13],60%
same,Activity,[14],56%
same,inhibition,[15],Dose-dependent effect
same,Activity,HepG2 [16],50%
same,Activity,[17],80%
